Source: patent US11220488B2, “Crystalline polymorph of Ponesimod” (TEVA PHARMACEUTICALS INTERNATIONAL GMBH, priority 2017, dated 2022)
In brackets after ≈: the same amount, converted by molar mass.

Test: Solubility measurement by dissolution apparatus, Ponesimod content by liquid chromatography
Format: physicochemical
Procedure: The solubility for Ponesimod Form T1, according to this invention, Ponesimod Form A and Form C (described in PCT application WO 2010/046835) was measured by using Dissolution apparatus (Lab India DS8000) at 37° C. Buffers at pH. 1.2, 4.5 and 6.8 were prepared as per the USP 36 Solutions/Buffer Solutions 1209. About 200 mg of Ponesimod Form T1, 150 mg of Ponesimod Forms A and C were added to the 100 mL buffer (pH 1.2, 4.5 and 6.8) in individual flasks to obtain saturated suspension and the suspension was stirred with 250 rpm for 24 hours. Suspension was observed though out stirring period. Samples were drawn at different intervals on completion of 15 mins, 30 mins, 45 mins, 1 hrs, 2 hrs, 3 hrs, 4 hrs and 24 hrs from each flask and filtered through 0.45μ PTFE filter, each solution was analyzed for Ponesimod content by liquid chromatography.

## CCC/N=C1\S/C(=C\c2ccc(OC[C@H](O)CO)c(Cl)c2)C(=O)N1c1ccccc1C [Ponesimod, (R)-5-[3-chloro-4-(2,3-dihydroxy-propoxy)-benz[Z]ylidene]-2-([Z]-propylimino)-3-o-tolyl-thiazolidin-4-one]
Higher pH conditions (e.g. 4.5 and 6.8), 37° C.
  Solubility at higher pH conditions: not soluble

## CCC/N=C1\S/C(=C\c2ccc(OC[C@H](O)CO)c(Cl)c2)C(=O)N1c1ccccc1C [Form C, (R)-5-[3-chloro-4-(2,3-dihydroxy-propoxy)-benz[Z]ylidene]-2-([Z]-propylimino)-3-o-tolyl-thiazolidin-4-one]
pH 1.2 buffer, 37° C., 2 Hrs, listed as C
  Solubility results at pH = 1.2: 0.09 mg/ml
pH 1.2 buffer, 37° C., 3 Hrs, listed as C
  Solubility results at pH = 1.2: 0.11 mg/ml
pH 1.2 buffer, 37° C., 4 Hrs, listed as C
  Solubility results at pH = 1.2: 0.12 mg/ml
pH 1.2 buffer, 37° C., 15 Min, listed as C
  Solubility results at pH = 1.2: 0.05 mg/ml
pH 1.2 buffer, 37° C., 24 Hrs, listed as C
  Solubility results at pH = 1.2: 0.15 mg/ml
pH 1.2 buffer, 37° C., 30 Min, listed as C
  Solubility results at pH = 1.2: 0.06 mg/ml
pH 1.2 buffer, 37° C., 45 Min, listed as C
  Solubility results at pH = 1.2: 0.07 mg/ml
pH 1.2 buffer, 37° C., 60 Min, listed as C
  Solubility results at pH = 1.2: 0.08 mg/ml

## CCC/N=C1\S/C(=C\c2ccc(OC[C@H](O)CO)c(Cl)c2)C(=O)N1c1ccccc1C [Form T1, (R)-5-[3-chloro-4-(2,3-dihydroxy-propoxy)-benz[Z]ylidene]-2-([Z]-propylimino)-3-o-tolyl-thiazolidin-4-one]
Comparison in words
  Solubility compared to other known crystalline polymorphs of Ponesimod: higher solubility
pH 1.2 buffer, 37° C., 2 Hrs, listed as T1
  Solubility results at pH = 1.2: 0.24 mg/ml
pH 1.2 buffer, 37° C., 3 Hrs, listed as T1
  Solubility results at pH = 1.2: 0.29 mg/ml
pH 1.2 buffer, 37° C., 4 Hrs, listed as T1
  Solubility results at pH = 1.2: 0.31 mg/ml
pH 1.2 buffer, 37° C., 15 Min, listed as T1
  Solubility results at pH = 1.2: 0.07 mg/ml
pH 1.2 buffer, 37° C., 24 Hrs, listed as T1
  Solubility results at pH = 1.2: 0.40 mg/ml
pH 1.2 buffer, 37° C., 30 Min, listed as T1
  Solubility results at pH = 1.2: 0.09 mg/ml
pH 1.2 buffer, 37° C., 45 Min, listed as T1
  Solubility results at pH = 1.2: 0.12 mg/ml
pH 1.2 buffer, 37° C., 60 Min, listed as T1
  Solubility results at pH = 1.2: 0.15 mg/ml

## CCC/N=C1\S/C(=C\c2ccc(OC[C@H](O)CO)c(Cl)c2)C(=O)N1c1ccccc1C [Form A, (R)-5-[3-chloro-4-(2,3-dihydroxy-propoxy)-benz[Z]ylidene]-2-([Z]-propylimino)-3-o-tolyl-thiazolidin-4-one]
pH 1.2 buffer (USP), 37 °C, pH 1.2, simulated gastric fluid, thermodynamic from solid, pH 1.2 buffer, 45 Min
  solubility at 45 min: 120 µg/mL (≈ 260 µM)
pH 1.2 buffer (USP), 37 °C, pH 1.2, simulated gastric fluid, thermodynamic from solid, pH 1.2 buffer, 60 Min
  solubility at 60 min: 120 µg/mL (≈ 260 µM)
pH 1.2 buffer, 37° C., 2 Hrs, listed as A
  Solubility results at pH = 1.2: 0.11 mg/ml
pH 1.2 buffer, 37° C., 3 Hrs, listed as A
  Solubility results at pH = 1.2: 0.11 mg/ml
pH 1.2 buffer, 37° C., 4 Hrs, listed as A
  Solubility results at pH = 1.2: 0.11 mg/ml
pH 1.2 buffer, 37° C., 30 Min, listed as A
  Solubility results at pH = 1.2: 0.13 mg/ml
